ChEMBL document CHEMBL3991601, “The target landscape of clinical kinase drugs” (Science, 2017)
The source made the active and inactive calls.

Experiments:
[1] = molecular target: T1, AarF domain-containing protein kinase 1 (Homo sapiens, UniProt Q86TW2)
T1 sequence (Q86TW2 whole entry): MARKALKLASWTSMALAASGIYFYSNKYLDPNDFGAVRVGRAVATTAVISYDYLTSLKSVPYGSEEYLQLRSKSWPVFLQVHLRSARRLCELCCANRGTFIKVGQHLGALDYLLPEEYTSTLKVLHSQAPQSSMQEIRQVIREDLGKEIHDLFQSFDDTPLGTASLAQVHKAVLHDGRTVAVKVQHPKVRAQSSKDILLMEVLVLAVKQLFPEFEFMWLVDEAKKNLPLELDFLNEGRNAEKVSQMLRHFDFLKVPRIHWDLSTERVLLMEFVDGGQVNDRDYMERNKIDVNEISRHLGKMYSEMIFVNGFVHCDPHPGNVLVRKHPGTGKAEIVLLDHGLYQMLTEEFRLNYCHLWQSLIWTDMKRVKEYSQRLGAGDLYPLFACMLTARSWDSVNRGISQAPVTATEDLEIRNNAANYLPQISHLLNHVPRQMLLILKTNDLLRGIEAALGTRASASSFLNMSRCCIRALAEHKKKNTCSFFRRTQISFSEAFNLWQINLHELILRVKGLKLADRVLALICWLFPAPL

[2] = molecular target: T2, ATP-dependent RNA helicase DHX30 (Homo sapiens, UniProt Q7L2E3)
T2 sequence (Q7L2E3 whole entry): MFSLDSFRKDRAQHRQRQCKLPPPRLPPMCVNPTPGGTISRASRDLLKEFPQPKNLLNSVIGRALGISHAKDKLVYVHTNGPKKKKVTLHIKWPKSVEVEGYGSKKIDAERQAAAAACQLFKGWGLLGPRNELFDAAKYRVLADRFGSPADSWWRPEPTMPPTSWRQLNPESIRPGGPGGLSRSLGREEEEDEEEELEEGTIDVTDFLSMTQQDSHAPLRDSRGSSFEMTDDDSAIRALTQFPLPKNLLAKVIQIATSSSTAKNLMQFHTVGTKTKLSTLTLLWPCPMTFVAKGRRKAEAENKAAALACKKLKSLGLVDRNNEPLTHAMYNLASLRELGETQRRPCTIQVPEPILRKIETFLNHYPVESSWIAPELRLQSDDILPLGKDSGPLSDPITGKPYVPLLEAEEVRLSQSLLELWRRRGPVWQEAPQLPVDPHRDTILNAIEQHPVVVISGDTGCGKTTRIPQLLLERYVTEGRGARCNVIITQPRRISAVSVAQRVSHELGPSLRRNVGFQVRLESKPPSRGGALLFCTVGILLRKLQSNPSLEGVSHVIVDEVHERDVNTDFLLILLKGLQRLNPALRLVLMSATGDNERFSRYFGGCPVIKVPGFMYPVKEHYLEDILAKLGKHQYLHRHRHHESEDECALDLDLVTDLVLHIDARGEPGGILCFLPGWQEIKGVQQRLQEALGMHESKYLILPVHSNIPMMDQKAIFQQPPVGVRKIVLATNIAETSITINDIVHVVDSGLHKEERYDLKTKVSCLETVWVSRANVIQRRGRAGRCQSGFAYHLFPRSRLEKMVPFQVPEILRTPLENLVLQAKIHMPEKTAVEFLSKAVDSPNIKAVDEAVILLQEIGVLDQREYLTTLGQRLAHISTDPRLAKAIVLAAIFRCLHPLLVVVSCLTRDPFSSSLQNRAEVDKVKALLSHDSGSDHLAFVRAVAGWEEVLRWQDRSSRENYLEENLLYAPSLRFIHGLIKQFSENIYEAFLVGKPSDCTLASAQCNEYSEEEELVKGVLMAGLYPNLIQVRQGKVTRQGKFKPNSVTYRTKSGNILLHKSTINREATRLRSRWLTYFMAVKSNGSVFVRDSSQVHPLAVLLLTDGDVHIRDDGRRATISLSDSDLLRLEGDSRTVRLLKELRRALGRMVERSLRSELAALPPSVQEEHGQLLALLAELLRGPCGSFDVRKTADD

[3] = molecular target: T3, Membrane-associated tyrosine- and threonine-specific cdc2-inhibitory kinase (Homo sapiens, UniProt Q99640)
T3 sequence (Q99640 whole entry): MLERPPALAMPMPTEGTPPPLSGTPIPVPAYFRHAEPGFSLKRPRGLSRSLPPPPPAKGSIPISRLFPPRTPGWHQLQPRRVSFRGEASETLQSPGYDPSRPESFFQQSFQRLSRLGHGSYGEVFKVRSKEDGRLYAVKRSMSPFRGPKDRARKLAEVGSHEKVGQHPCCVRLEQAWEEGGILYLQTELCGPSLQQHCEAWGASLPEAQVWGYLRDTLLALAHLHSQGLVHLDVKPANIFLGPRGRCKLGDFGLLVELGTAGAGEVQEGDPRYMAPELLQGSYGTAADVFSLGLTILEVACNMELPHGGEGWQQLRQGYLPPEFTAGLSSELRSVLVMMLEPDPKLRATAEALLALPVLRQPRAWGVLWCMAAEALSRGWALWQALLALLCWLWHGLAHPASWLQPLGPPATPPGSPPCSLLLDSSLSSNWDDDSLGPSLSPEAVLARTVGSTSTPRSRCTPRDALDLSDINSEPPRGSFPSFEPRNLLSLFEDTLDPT

[4] = molecular target: Tyrosine-protein kinase FRK (Homo sapiens, UniProt P42685)
[5] = molecular target: T4, Acyl-CoA dehydrogenase family member 11 (Homo sapiens, UniProt Q709F0)
T4 sequence (Q709F0 whole entry): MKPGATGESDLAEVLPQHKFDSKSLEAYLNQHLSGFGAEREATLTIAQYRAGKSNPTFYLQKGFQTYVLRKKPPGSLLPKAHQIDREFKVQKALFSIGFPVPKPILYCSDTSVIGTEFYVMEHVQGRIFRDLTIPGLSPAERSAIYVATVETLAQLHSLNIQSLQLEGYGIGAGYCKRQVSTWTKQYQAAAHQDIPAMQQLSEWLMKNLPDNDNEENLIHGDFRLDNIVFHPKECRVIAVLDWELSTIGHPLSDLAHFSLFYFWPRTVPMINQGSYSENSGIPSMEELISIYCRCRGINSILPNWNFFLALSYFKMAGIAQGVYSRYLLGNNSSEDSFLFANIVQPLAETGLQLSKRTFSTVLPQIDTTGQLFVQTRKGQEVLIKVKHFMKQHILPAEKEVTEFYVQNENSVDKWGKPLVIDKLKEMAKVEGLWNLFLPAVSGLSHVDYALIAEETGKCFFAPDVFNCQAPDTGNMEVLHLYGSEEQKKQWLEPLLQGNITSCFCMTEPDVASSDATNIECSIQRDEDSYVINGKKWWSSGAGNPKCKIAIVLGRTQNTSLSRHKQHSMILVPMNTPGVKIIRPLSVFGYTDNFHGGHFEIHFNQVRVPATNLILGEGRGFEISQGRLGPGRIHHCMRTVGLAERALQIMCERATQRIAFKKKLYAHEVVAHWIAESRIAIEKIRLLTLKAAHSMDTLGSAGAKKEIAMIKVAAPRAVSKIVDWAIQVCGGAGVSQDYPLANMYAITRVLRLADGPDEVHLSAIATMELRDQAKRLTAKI
Also: in the data inactive means no Kd found up to 30 µM.

Sequence of Tyrosine-protein kinase FRK (P42685 whole entry): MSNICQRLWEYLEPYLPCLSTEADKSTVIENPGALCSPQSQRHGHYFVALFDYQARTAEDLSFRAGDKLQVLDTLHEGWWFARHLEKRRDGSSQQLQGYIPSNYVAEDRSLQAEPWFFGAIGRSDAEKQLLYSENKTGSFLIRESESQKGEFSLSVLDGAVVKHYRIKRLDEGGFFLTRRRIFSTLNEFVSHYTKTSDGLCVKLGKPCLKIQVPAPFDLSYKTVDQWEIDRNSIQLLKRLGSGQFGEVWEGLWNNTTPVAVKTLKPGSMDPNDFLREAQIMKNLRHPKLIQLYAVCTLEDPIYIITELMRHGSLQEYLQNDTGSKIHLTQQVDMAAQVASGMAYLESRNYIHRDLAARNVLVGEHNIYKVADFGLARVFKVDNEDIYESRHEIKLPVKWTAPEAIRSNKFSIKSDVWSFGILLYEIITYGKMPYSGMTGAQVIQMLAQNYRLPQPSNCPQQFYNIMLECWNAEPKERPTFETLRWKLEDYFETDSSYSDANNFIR

`CC(C)c1cc(CNc2nc(Nc3cc(C4CC4)[nH]n3)cc(N3CCN(C)CC3)n2)on1` [XL-228] was tested. Which Kd [1] did it give?
Its Kd is > 30 µM (inactive).

What about the Kd [2] of the same compound?
Its Kd is > 30 µM (inactive).

What about the Kd [3] of the same compound?
The Kd was > 30 µM (inactive).

And the Kd [4]?
The Kd was > 30 µM (inactive).

And the Kd [5]?
Its Kd is > 30 µM (inactive).

What does the source list for `C[C@@H](N)c1ccc(C(=O)Nc2ccnc3[nH]ccc23)cc1` [Y-39983]?
Kd [1]: > 30 µM (inactive); Kd [2]: > 30 µM (inactive); Kd [3]: > 30 µM (inactive); Kd [4]: > 30 µM (inactive); Kd [5]: > 30 µM (inactive)

`CN1C/C=C/CCOc2cccc(c2)-c2ccnc(n2)Nc2cccc(c2)C1` [ZOTIRACICLIB] was tested. Which Kd [1] did it give?
The Kd was 0.023 µM.

What about the Kd [2] of the same compound?
Its Kd is > 30 µM (inactive).

And the Kd [3]?
The Kd was > 30 µM (inactive).

And the Kd [4]?
The Kd was > 30 µM (inactive).

What about the Kd [5] of the same compound?
Its Kd is > 30 µM (inactive).
